Measured values reported in US6313171A, “Method for preventing or treating elevated blood lipid level-related diseases by administering cinnamic acid derivatives” (Korea Research Institute of Bioscience & Biotechnology, priority 1998, dated 2001).

What was measured:
ACAT = target: T1, ACAT (Rattus norvegicus, UniProt Q7TQM4); assay: ACAT assay, liver microsomes of the fed rats; assay type: biochemical; conditions: liver microsomes of rats fed 0.1% in 1% cholesterol diet; Control 0
T1 construct: microsomes were separated from liver tissues to be used as an enzyme source; from tissue; host or cells: rat liver microsomes
T1 sequence (Q7TQM4 1-524): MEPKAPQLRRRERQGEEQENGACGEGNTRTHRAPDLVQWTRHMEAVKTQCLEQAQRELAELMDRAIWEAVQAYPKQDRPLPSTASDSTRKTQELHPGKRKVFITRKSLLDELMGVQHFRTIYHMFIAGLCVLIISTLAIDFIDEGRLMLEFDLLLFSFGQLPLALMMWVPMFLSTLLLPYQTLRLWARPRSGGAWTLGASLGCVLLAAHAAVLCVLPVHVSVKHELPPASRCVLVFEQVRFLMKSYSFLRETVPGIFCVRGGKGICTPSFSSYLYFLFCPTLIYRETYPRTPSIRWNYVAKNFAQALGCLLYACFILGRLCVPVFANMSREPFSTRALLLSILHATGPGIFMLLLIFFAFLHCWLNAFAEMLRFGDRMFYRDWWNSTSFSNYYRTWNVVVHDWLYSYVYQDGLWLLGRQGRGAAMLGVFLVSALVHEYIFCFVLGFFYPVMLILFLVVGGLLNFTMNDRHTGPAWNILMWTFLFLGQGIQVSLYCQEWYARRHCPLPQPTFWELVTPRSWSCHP
Protocol: To determine the effect of feeding cinnamic acid derivatives to rats on the activity of ACAT, microsomes were separated from liver tissues to be used as an enzyme source.
1 g each of the livers taken from each group of rats of Example 2 was homogenized in 5 ml of homogenization medium (0.1 M KH2 PO4, pH 7.4, 0.1 mM EDTA and 10 mM β-mercaptoethanol). The homogenate was centrifuged at 3,000×g for 15 min. at 4° C. and the supernatant thus obtained was centrifuged at 15,000×g for 15 min. at 4° C. to obtain a supernatant. The supernatant was put into an ultracentrifuge tube (Beckman) and centrifuged at 100,000×g for 1 hour at 4° C. to obtain microsomal pellets, which were then suspended in 3 ml of the homogenization medium and centrifuged at 100,000×g for 1 hour at 4° C. The pellets thus obtained were suspended in 1 ml of the homogenization medium. The protein concentration of the resulting suspension was determined by Lowry's method and then adjusted to 4 to 8 mg/ml. The resulting suspension was stored in a deep freezer (Biofreezer, Forma Scientific Inc.).
6.67 μl of 1 mg/ml cholesterol solution in acetone was mixed with 6 μl of 10% Triton WR-1339 (Sigma Co.) in acetone and, then, acetone was removed from the mixture by evaporation under a nitrogen flow. Distilled water was added to the resulting mixture to adjust the concentration of cholesterol to […].
Added to 10 μl of the resulting aqueous cholesterol solution were 10 μl of 1 M KH2 PO4 (pH 7.4), 5 μl of 0.6 mM bovine serum albumin (BSA), 10 μl of microsome solution obtained in (Step 1) and 55 μl of distilled water (total 90 μl). The mixture was pre-incubated in a water bath at 37° C. for 30 min. […]
200 μl of the resulting supernatant was put in a scintillation bottle and 4 ml of scintillation fluid (Lumac) was added thereto. The mixture was assayed for radioactivity with 1450 Microbeta liquid scintillation counter (Wallacoy, Finland). ACAT activity was calculated as picomoles of cholesteryl oleate synthesized per min. per mg protein (pmoles/min/mg protein).

liver = assay: Prevention of hepatic diseases: microscopic fatty liver grading in rabbits; assay type: in vivo, rabbit (New Zealand White); conditions: for microscopic features of the liver: FIGS. 2A-2E, control: many cells containing excessive fat around the central vein; for fatty liver grade (1+ to 4+): grades 1+(0-25%), 2+(26-50%), 3+(51-75), 4+(76-100%), rabbits, 8 weeks, Control 3.2 ± 0.3
Protocol: 30 three-month-old male New Zealand White rabbits (Yeonam Horticulture and Animal Husbandry College, Korea), each weighing about 2.5 to 2.6 kg, were raised under condition of temperature 20±2° C., relative humidity 55±5%, and photoperiod 12L/12D. The rabbits were divided into 5 groups and 5 groups of rabbits were fed with 5 different diets, i.e., RC4 diet (Oriental Yeast Co., Japan) containing 1% cholesterol (Control group); 1% cholesterol plus 1 mg/kg Lovastatin® (Merck, U.S.A.) (Lovastatin group); 1% cholesterol plus 0.1% 4-hydroxycinnamic acid (4-hydroxycinnamic acid group); 1% cholesterol plus 0.1% 3,4-dihydroxycinnamic acid (3,4-dihydroxycinnamic acid group); and 1% cholesterol plus 0.1% 3,4-dihydroxyhydrocinnamic acid (3,4-dihydroxyhydrocinnamic acid group), respectively. RC4 diet comprises 7.6% moisture, 22.8% crude protein, 2.8% crude fat, 8.8% crude ash, 14.4% crude cellulose and 43.6% soluble nitrogen-free substances. Cinnamic acid derivatives were purchased from Sigma Chemical Co. (St. Louis, Mo.).
The rabbits were fed for 8 weeks while being allowed free access to the diets and water.

[1] = Plasma cholesterol and triglyceride in two men with hyperlipidemia; assay type: in vivo, human; conditions: 10 mg/kg daily oral capsule, 60 days
Protocol: Two men in their mid-fifties, suffered by hyperlipidemia with blood cholesterol level ranging from 230 to 270 mg/dl and blood triglyceride level ranging from 200 to 220 mg/dl, were administered with a daily oral dose of 10 mg/kg of 4-hydroxycinnamic acid in the form of a capsule for 60 days. The plasma cholesterol and triglyceride contents were determined before and after the administration.

[2] = Acute oral toxicity in ICR mice; assay type: in vivo, mouse
Protocol: 12 seven-week-old, specific pathogen-free ICR […] mice, six female mice each weighing about 25 to 29 g and six male mice each weighing about 34 to 38 g, were kept under an environment of 22±1° C., 55±5% relative humidity and 12L/12D photoperiod. Fodder (Cheiljedang Co., mouse and rat fodder) and water were sterilized and fed to the mice.
4-hydroxycinnamic acid purchased from Aldrich-Sigma Chemical Co. (St. Louis, Mo., U.S.A) was dissolved in 0.5% Tween 80 to a concentration of 100 mg/ml, and the solution was orally administered to the mice in an amount of 0.2 ml per 20 g of mouse body weight. […] Further, on the 10th day, the mice were sacrificed and the internal organs were visually examined.

SMILES | Inhibition on ACAT activity (ACAT) [%] | microscopic features of the liver (liver) | fatty liver grade (1+ to 4+) (liver) | reduction of plasma cholesterol content [1] [%] | reduction of plasma triglyceride content [1] [%] | autopsy, internal organs ([2]; oral 1,000 mg/kg, 10th day) | weight changes ([2]; oral 1,000 mg/kg, 10 day test period) | survival ([2]; oral 1,000 mg/kg, day 10) | toxicity ([2]; single oral dose 1,000 mg/kg, mice, 10 days)
O=C(O)CCc1ccc(O)c(O)c1 [3,4-dihydroxyhydrocinnamic acid] | 20 | almost all liver cells are of a normal shape | 2.6 ± 0.3 | – | – | – | – | – | –
O=C(O)/C=C/c1ccc(O)cc1 [4-Hydroxycinnamic acid, 4-hydroxycinnamic acid] | 17 | almost all liver cells are of a normal shape | 2.7 ± 0.3 | 25 | 20 | had not developed any pathological abnormality | no weight loss was observed | All the mice were alive | showed no toxicity
O=C(O)/C=C/c1ccc(O)c(O)c1 [3,4-dihydroxycinnamic acid] | 7 | almost all liver cells are of a normal shape | 2.6 ± 0.3 | – | – | – | – | – | –
